Results published in patent US9139615B2, “High-affinity, dimeric inhibitors of PSD-95 as efficient neuroprotectants against ischemic brain damage and for treatment of pain” (University of Copenhagen, priority 2011, dated 2015).
Entries after “also recorded” stand apart in the source; their conditions may differ. Where no end group is shown, it is not given here.

Columns and labels:
[1] = Human blood plasma stability assay; assay type: in vitro ADME; settings: human, plasma; 0.25 mM, 37° C., in vitro; read-out: half-life (T1/2) in human blood plasma
Protocol: Ligands (dimeric PSD-95 inhibitors) for the PDZ domain of PSD-95 were dissolved in human blood plasma (270 μL; 3H Biomedical, Sweden, cat no 1300-1-P50) to a concentration of 0.25 mM (30 μL, of 2.5 mM) and incubated at 37° C. Aliquots (30 μL) were removed at various time intervals (e.g. 0, 5, 10, 20, 40, 80, 160, 320, 960, 1280, 2550, 4560 and 7240 min) and quenched with 60 μL, trichloroacetic acid (aq., 5%). The aliquots were vortexed, and incubated 15 min, at 4° C. prior to centrifugation at 18,000 g for 2 min. The supernatants were analyzed by analytical RP-HPLC (UV218) to quantify compound relative to time zero, and also evaluated qualitatively by ESI-LC/MS in order to identify the compound (m/z) in the sample. Procaine (positive control) and procainamide (negative control) were investigated at 50 μM to validate the procedure. Ligand recoveries following the precipitation procedure were between 85-95%.

[2] = tested on: CFA-induced mechanical allodynia/hyperalgesia; experiment: Complete Freund's adjuvant (CFA) inflammatory pain, von Frey test; assay type: in vivo, mice; settings: administered concurrently with CFA, 1 hour and 24 hours after treatment
[3] = Physiological status of pMCAO mice (blood values, body weight, temperature, survival); assay type: in vivo; settings: pMCAO 48 h experiment, 1 hour after surgery, mean ± SEM
Protocol: The physiological status of the mice was carefully monitored prior to and during pMCAO surgery in order to exclude the observed effects of treatment with dimeric PSD-95 inhibitors being due to secondary conditions (e.g. disease-related) resulting from the experimental procedure.
9.10 Body weight monitoring: The body weight of each mouse was registered during pre-training, before surgery, and at 24 and 48 hours after surgery and no differences were seen between the treatment groups (FIG. 13).
9.11 Temperature monitoring: The rectal temperature of the mouse was continuously measured using a thermocoupled probe connected to a Model Bat 12 unit (Physitemp). The temperature was measured prior to and 30 min after pMCAO in addition to 30 min and 2.5 hours after i.v. injection, i.e. 1 and 3 hours after pMCAO.
9.12 Blood gas analysis: One samples of venous blood was taken for blood gas analysis of PO2/PCO2 electrolytes, glucose, lactate, and hematocrit, 30 min after compound administration (1 hour after pMCAO). A capillary heparin coated tube was inserted along the inner corner of eye and turned until it penetrated the conjunctiva. A sample of blood (150 μl) was collected and stored on ice until gas analysis using the GEM Premier 300 blood gas instrument (Instrumentation Laboratory) Quality controls (QC ContrlIL9) were purchased from IL Sensor Systems. Also, no differences were detected in blood gas parameters (PO2/PCO2, pH, electrolytes, glu/lac), which were similar between the groups and within normal range, when compared to unmanipulated control mice (Table 4).

[4] = tested on: pMCAO model of ischemic stroke; experiment: Grip strength after pMCAO; assay type: in vivo, mice; settings: 48 hours after pMCAO, 3 nmol/g i.v.
Protocol: The grip strength meter (BIO-GT-3, BIOSEB) allows the study of neuromuscular functions in mice by determining the maximum force that is required to make the mouse release its grip. The grip strength in individual paws was used to measure the severity of the pMCAO-induced asymmetry. The mouse is allowed to grasp a metal grid and then pulled backwards in the horizontal plane. The force applied to the grid is recorded as the peak tension. The strength of individual front paws and the total grip strength (both paws simultaneously) were measured before (baseline) and after pMCAO. Each mouse is tested in 5 sequential trials and the highest grip strength is recorded as the best score.

[5] = Blood-brain barrier permeability of fluorescent analogues; assay type: in vivo, mice; settings: mice, conclusion for unlabeled compounds
Protocol: VI.ii. Blood-brain Barrier Permeability. […] After injection of the compounds, the mice are perfused with paraformaldehyde and the brains are carefully removed, post-fixed in paraformaldehyde, processed into coronal sections, and quantified for fluorescence (Example 8).
The fluorescent ligands were injected intravenously (3 nmol/g) and the location of the ligands was detected by fluorescence microscopy of coronal brain slices (n=8) mice, was evaluated 2 hours after injection. Two sections of the brain, prior to and two after the anterior commissure (n=5), were selected for BBB permeability analysis. The anterior commissure (Bregma: −0.3) was used as a fix point in the brain in order to analyse anatomically identical brain sections. The intensity of the 5-FAM fluorophore was measured semi-quantitatively using a fluorescence microscopy system (Olympus System Microscope model BX-51, Denmark) with a 10× objective (Olympus 10×/0.15 UPlanApo) connected to a high-resolution microscope digital camera (Olympus model DP70), which transferred images to an image-capturing software (Image Pro Plus software). All images were taken using the same microscope settings and with constant camera exposure time. Intensities were quantified using the ImageJ software.
5-FAM-labeled derivative of Tat-NR2B9c is designated MS23. After injection of the compounds, the mice are perfused with paraformaldehyde and the brains are carefully removed, post-fixed in paraformaldehyde, processed into coronal sections, and quantified for fluorescence.
C57BL/6 mice with 6 hour post-surgical survival time were euthanized by cervical dislocation. C57BL/6 mice with 48 hour post-surgical survival were anesthetized with an overdosed of pentobarbital (the pharmacy of the Faculty of Life Sciences, University of Copenhagen, Denmark) in order to collect blood and tissue samples. All brains were carefully removed, frozen in gaseous CO2 and cut into 6 series of 30 μm coronal cryostat sections and stored at −80° C. until further use. C57BL/6J mice used to investigate the blood-brain barrier (BBB) permeability of AB143, AB145, AB148, and MS23 were deeply anesthetized and perfused through the left ventricle, using 10 ml chilled Soerensens phosphate buffer (SB) ([…], 125 mM Na2HPO4, pH 7.4) followed by 20 mL SB containing 4% paraformaldehyde (PFA). The brains were carefully removed and post-fixed in 4% PFA for 1 hour followed by immersion in SB containing 20% sucrose over night. The brains were frozen on gaseous CO2 and processed into 16 μm coronal cryostat sections.

[6] = tested on: pMCAO model of ischemic stroke; experiment: Rotarod performance test after pMCAO; assay type: in vivo, mice; settings: 48 hours after pMCAO; for total time spent on the rod: 3 nmol/g i.v., four trials
Protocol: The rotarod (LE 8200, Panlab) is well suited to evaluate motor activity in rodents, experimental compound effects on central nervous system damage, or disease effects on motor coordination, assessed by the time during which the animal remains walking in a rotating drum. The rotation of the rotarod is motor drived and accelerates from 0 to 40 rounds per min (rpm) over a time period of 5 min, at which time all mice have fallen off the rod. All mice were tested in 4 repeating trials with a 20 min interval (resting time). Prior to surgery mice were pre-trained to stay on the rod for 30 seconds, at 4 rpm.

[7] = Spinal cord detection of fluorescent PSD-95 inhibitors; assay type: in vivo, mice; settings: conclusion for unlabeled compounds
Protocol: To investigate if AB143 and AB145 are able to enter spinal cord tissue, they were administered to the mice by intraperitoneal injection (30 mg/kg). The drug-treated mice were decapitated 30 min after injection, and the spinal cord was carefully dissected out, to which 5% trichloroacetic acid (TCA) (300 μL per 0.1 g tissue) was added and the tissue homogenized with an ultrasonic homogenizer (on ice). The homogenated tissue was vortexed and centrifuged for 10 min (20000 g at 4° C.). The supernatant was transferred to a test tube and evaporated, and the residue was reconstituted in water and its fluoresence intensity was determined by using a fluorescence plate reader (excitation/emission:470/525 nm). For quantification of the compounds, a standard curve was prepared by spiking a known amount of AB143 and AB145 into spinal cord tissue from control mice prior to homogenization, followed by work-up and analysis similar to the drug-treated mice.

[8] = tested on: pMCAO model of cerebral focal ischemia; experiment: pMCAO model of cerebral focal ischemia, infarct volume; assay type: in vivo, mice; settings: 3 nmol/g i.v. 30 min after pMCAO

Molecule | half-life at 0.25 mM [1] [h] | CFA-induced mechanical hyperalgesia [2] | blood pH ([3]; 3 nmol/g i.v.) | Hct [3] [%] | [Ca2+] [3] [mmol/L] | [K+] [3] [mmol/L] | [Lactate] [3] [mmol/L] | [Na+] [3] [mmol/L] | pCO2 [3] [mmHg] | pO2 [3] [mmHg] | grip strength asymmetry between right and left front paw [4] | total grip strength (both paws) compared to baseline [4] | ability to enter the brain (concluded from fluorescent surrogates) [5] | total time spent on the rod [6] [s] | short term learning skill improvement on rotarod compared to saline ([6]; trials T1-T4) | ability to enter spinal cord tissue (concluded from fluorescent surrogates) [7] | reduction of ischemic tissue damage (infarct volume) compared to saline ([8]; 6 hour post-surgical survival) | reduction in infarct size compared to saline ([8]; 48 hours after pMCAO)
CC[C@H](C)[C@H](NC(=O)CCOCCOCCN(CCOCCOCCC(=O)N[C@H](C(=O)N[C@@H](CCC(=O)O)C(=O)N[C@H](C(=O)N[C@@H](CC(=O)O)C(=O)N[C@H](C(=O)O)C(C)C)[C@@H](C)O)[C@@H](C)CC)C(=O)[C@H](CCCNC(=N)N)NC(=O)[C@H](CCCNC(=N)N)NC(=O)[C@H](CCCNC(=N)N)NC(=O)[C@H](CCC(N)=O)NC(=O)[C@H](CCCNC(=N)N)NC(=O)[C@H](CCCNC(=N)N)NC(=O)[C@H](CCCCN)NC(=O)[C@H](CCCCN)NC(=O)[C@H](CCCNC(=N)N)NC(=O)CNC(=O)[C@@H](N)Cc1ccc(O)cc1)C(=O)N[C@@H](CCC(=O)O)C(=O)N[C@H](C(=O)N[C@@H](CC(=O)O)C(=O)N[C@H](C(=O)O)C(C)C)[C@@H](C)O [AB144, Tat-NPEG4(IETDV)2] | 81.7 ± 1.67 | prevented the development of CFA-induced mechanical hyperalgesia | 7.16 ± 0.01 | 43.5 ± 0.9 | 1.30 ± 0.02 | 5.2 ± 0.20 | 0.93 ± 0.07 | 148 ± 2.0 | 95.7 ± 2.3 | 50.2 ± 2.2 | no asymmetry and not | no significant change in total grip strength; also recorded: No difference compared to baseline | ability to cross the blood-brain barrier; also recorded: able to enter the brain | 83.5 ± 4.1 | more pronounced short term learning skill improvement | able to enter CNS spinal cord tissue at relevant concentrations |  | 
YGRKKRRQRRRKLSSIESDV [Tat-NR2B9c, reference compound] |  |  |  |  |  |  |  |  |  |  | observed | lost a significant amount of grip strength; also recorded: significant reduced grip strength |  | 65.7 ± 3.6 |  |  | did not provide a statistically significant reduction; also recorded: not achieved | no statistically significant infarct reduction
